Test results taken from ChEMBL document CHEMBL3046835, “Insecticidal activity influence of beta-cypermethrin on the pathogenicity of Beauveria bassiana against Aleurodicus disperses” (Crop Prot, 2013).
In brackets after ≈: the same amount, converted by molar mass.

What was measured:
[1] = test system: Aleurodicus dispersus; assay: Insecticidal activity against third-instar nymph stage of Aleurodicus dispersus in guava leaves assessed as mortality at 5 mg/l treated for 15 s measured at 27 +/-2 degC after 48 hr (reference value: 3%); format: functional
[2] = test system: Aleurodicus dispersus; assay: Insecticidal activity against third-instar nymph stage of Aleurodicus dispersus in guava plant leaves assessed as mortality at 4 mg/l measured after 6 days under laboratory conditions (reference value: 3%); format: functional; conditions: 144 h
[3] = test system: Aleurodicus dispersus; assay: Insecticidal activity against third-instar nymph stage of Aleurodicus dispersus in guava plant leaves assessed as mortality at 2 mg/l measured after 3 days in presence of 10^8 Beauveria bassiana conidial suspension under laboratory conditions (reference value: 24.3 +/-1.03%); format: functional; conditions: 72 h
[4] = test system: Aleurodicus dispersus; assay: Insecticidal activity against third-instar nymph stage of Aleurodicus dispersus in guava leaves assessed as mortality treated for 15 s measured at 27 +/-2 degC after 48 hr; format: functional
[5] = test system: Aleurodicus dispersus; assay: Insecticidal activity against third-instar nymph stage of Aleurodicus dispersus in guava plant leaves assessed as mortality at 8 mg/l measured after 6 days under laboratory conditions (reference value: 3%); format: functional; conditions: 144 h
[6] = test system: Aleurodicus dispersus; assay: Insecticidal activity against third-instar nymph stage of Aleurodicus dispersus in guava plant leaves assessed as mortality at 2 mg/l measured after 6 days in presence of 10^8 Beauveria bassiana conidial suspension under laboratory conditions (reference value: 32.8 +/-2.39%); format: functional; conditions: 144 h
[7] = test system: Aleurodicus dispersus; assay: Insecticidal activity against third-instar nymph stage of Aleurodicus dispersus in guava plant leaves assessed as mortality at 4 mg/l measured after 6 days in presence of 10^8 Beauveria bassiana conidial suspension under laboratory conditions (reference value: 32.8 +/-2.39%); format: functional; conditions: 144 h
[8] = test system: Aleurodicus dispersus; assay: Insecticidal activity against third-instar nymph stage of Aleurodicus dispersus in guava plant leaves assessed as mortality at 2 mg/L applied via hand sprayer measured after 3 days in presence of 10^8 Beauveria bassiana conidial suspension under field conditions (reference value: 22.2 +/-3.15%); format: functional; conditions: 72 h
[9] = test system: Beauveria bassiana; assay: Inhibition of Beauveria bassiana Bb-N1 mycelial growth at 10 mg/L measured at 27 +/-2 degC after 10 days (reference value: 2.4 +/-0.19%); format: organism-based; design: scale not given: the % may be the effect or the level left; conditions: in vivo, 240 h
[10] = test system: Aleurodicus dispersus; assay: Insecticidal activity against third-instar nymph stage of Aleurodicus dispersus in guava plant leaves assessed as mortality at 4 mg/L applied via hand sprayer measured after 3 days under field conditions (reference value: 3%); format: functional; conditions: 72 h
[11] = test system: Aleurodicus dispersus; assay: Insecticidal activity against third-instar nymph stage of Aleurodicus dispersus in guava plant leaves assessed as mortality at 8 mg/L applied via hand sprayer measured after 6 days under field conditions (reference value: 3.5%); format: functional; conditions: 144 h
[12] = test system: Beauveria bassiana; assay: Effect on Beauveria bassiana Bb-N1 conidial germination at 10 mg/L measured at 27 +/-2 degC after 24 hr (reference value: 94.85 +/-2.13%); format: ADME, organism-based; conditions: in vivo
[13] = test system: Aleurodicus dispersus; assay: Insecticidal activity against third-instar nymph stage of Aleurodicus dispersus in guava plant leaves assessed as mortality at 4 mg/l measured after 3 days in presence of 10^8 Beauveria bassiana conidial suspension under laboratory conditions (reference value: 24.3 +/-1.03%); format: functional; conditions: 72 h
[14] = test system: Aleurodicus dispersus; assay: Insecticidal activity against third-instar nymph stage of Aleurodicus dispersus in guava leaves assessed as mortality at 10 mg/l treated for 15 s measured at 27 +/-2 degC after 24 hr (reference value: 2%); format: functional
[15] = test system: Aleurodicus dispersus; assay: Insecticidal activity against third-instar nymph stage of Aleurodicus dispersus in guava leaves assessed as mortality at 5 mg/l treated for 15 s measured at 27 +/-2 degC after 24 hr (reference value: 2%); format: functional
[16] = test system: Aleurodicus dispersus; assay: Insecticidal activity against third-instar nymph stage of Aleurodicus dispersus in guava plant leaves assessed as mortality at 2 mg/l measured after 3 days under laboratory conditions (reference value: 2%); format: functional; conditions: 72 h
[17] = test system: Aleurodicus dispersus; assay: Insecticidal activity against third-instar nymph stage of Aleurodicus dispersus in guava plant leaves assessed as mortality at 2 mg/L applied via hand sprayer measured after 6 days under field conditions (reference value: 3.5%); format: functional; conditions: 144 h
[18] = test system: Aleurodicus dispersus; assay: Insecticidal activity against third-instar nymph stage of Aleurodicus dispersus in guava plant leaves assessed as mortality at 2 mg/l measured after 6 days under laboratory conditions (reference value: 3%); format: functional; conditions: 144 h
[19] = test system: Aleurodicus dispersus; assay: Insecticidal activity against third-instar nymph stage of Aleurodicus dispersus in guava leaves assessed as mortality at 40 mg/l treated for 15 s measured at 27 +/-2 degC after 24 hr (reference value: 2%); format: functional
[20] = test system: Aleurodicus dispersus; assay: Insecticidal activity against third-instar nymph stage of Aleurodicus dispersus in guava plant leaves assessed as mortality at 8 mg/l measured after 3 days in presence of 10^8 Beauveria bassiana conidial suspension under laboratory conditions (reference value: 24.3 +/-1.03%); format: functional; conditions: 72 h
[21] = test system: Beauveria bassiana; assay: Effect on Beauveria bassiana Bb-N1 conidial production at <8 mg/L measured at 27 +/-2 degC after 10 days; format: ADME, organism-based; conditions: in vivo, 240 h
[22] = test system: Aleurodicus dispersus; assay: Insecticidal activity against third-instar nymph stage of Aleurodicus dispersus in guava plant leaves assessed as mortality at 4 mg/L applied via hand sprayer measured after 9 days in presence of 10^8 Beauveria bassiana conidial suspension under field conditions (reference value: 42.3 +/-3.58%); format: functional; conditions: 216 h
[23] = test system: Aleurodicus dispersus; assay: Insecticidal activity against third-instar nymph stage of Aleurodicus dispersus in guava leaves assessed as mortality at 20 mg/l treated for 15 s measured at 27 +/-2 degC after 48 hr (reference value: 3%); format: functional
[24] = test system: Aleurodicus dispersus; assay: Insecticidal activity against third-instar nymph stage of Aleurodicus dispersus in guava plant leaves assessed as mortality at 2 mg/L applied via hand sprayer measured after 9 days under field conditions (reference value: 4%); format: functional; conditions: 216 h
[25] = test system: Beauveria bassiana; assay: Inhibition of Beauveria bassiana Bb-N1 mycelial growth at 8 mg/L measured at 27 +/-2 degC after 10 days (reference value: 2.4 +/-0.19%); format: organism-based; design: scale not given: the % may be the effect or the level left; conditions: in vivo, 240 h
[26] = test system: Beauveria bassiana; assay: Effect on Beauveria bassiana Bb-N1 conidial germination at 8 mg/L measured at 27 +/-2 degC after 24 hr (reference value: 94.85 +/-2.13%); format: ADME, organism-based; conditions: in vivo
[27] = test system: Aleurodicus dispersus; assay: Insecticidal activity against third-instar nymph stage of Aleurodicus dispersus in guava leaves assessed as mortality at 20 mg/l treated for 15 s measured at 27 +/-2 degC after 24 hr (reference value: 2%); format: functional
[28] = test system: Beauveria bassiana; assay: Effect on Beauveria bassiana Bb-N1 conidial germination at 4 mg/L measured at 27 +/-2 degC after 24 hr (reference value: 94.85 +/-2.13%); format: ADME, organism-based; conditions: in vivo
[29] = test system: Aleurodicus dispersus; assay: Insecticidal activity against third-instar nymph stage of Aleurodicus dispersus in guava plant leaves assessed as mortality at 8 mg/l measured after 3 days under laboratory conditions (reference value: 2%); format: functional; conditions: 72 h

Compound: CC1(C)[C@H](C=C(Cl)Cl)[C@H]1C(=O)O[C@@H](C#N)c1cccc(Oc2ccccc2)c1 [BETA-CYPERMETHRIN]
- mortality at 5 µg/mL [1]: 32.3%
- mortality at 4 µg/mL [2]: 34.1%
- mortality at 2 µg/mL [3]: 67.7%
- LC95 [4]: 1768.57 µg/mL (≈ 4250 µM)
- LC50 ([4]; Aleurodicus dispersus, Nymph stage, 48 h): 18.4 µg/mL (≈ 44.1 µM)
- mortality at 8 µg/mL [5]: 39.3%
- mortality at 2 µg/mL [6]: 75.3%
- mortality at 4 µg/mL [7]: 77.6%
- mortality at 2 µg/mL [8]: 32.3%
- Activity [9]: 8.2%
- mortality at 4 µg/mL [10]: 26.7%
- mortality at 8 µg/mL [11]: 29.4%
- germination rate [12]: 89.18%
- mortality at 4 µg/mL [13]: 74.3%
- mortality at 10 µg/mL [14]: 23.1%
- mortality at 5 µg/mL [15]: 16.2%
- mortality at 2 µg/mL [16]: 28.7%
- mortality at 2 µg/mL [17]: 20.9%
- mortality at 2 µg/mL [18]: 28.7%
- mortality at 40 µg/mL [19]: 46.6%
- mortality at 8 µg/mL [20]: 76.1%
- Activity [21]: Non-toxic
- mortality at 4 µg/mL [22]: 62.4%
- mortality at 20 µg/mL [23]: 52.8%
- mortality at 2 µg/mL [24]: 20.9%
- Activity [25]: 4.4%
- germination rate [26]: 92.31%
- mortality at 20 µg/mL [27]: 34.5%
- germination rate [28]: 93.15%
- mortality at 8 µg/mL [29]: 39.3%
